Molecular target: T1, TMEM173 (Homo sapiens, UniProt Q86WV6)
T1 construct: endogenous in cells; host or cells: primary human T cells
Assay: isoTOP-ABPP and TMT-ABPP cysteine engagement, TMEM173
Assay type: binding
Method: Activated or expanded T cells were re-suspended in RPMI media supplemented with 10% FBS, L-glutamine (2 mM), penicillin (100 U/mL), and streptomycin (100 μg/mL) at 2×10^6 cells/mL. The compounds were added to cells as 1000×DMSO stocks and mixed well with the media by pipetting up and down after addition. The cells were kept at 37° C. in 5% CO2 containing incubators for 3 h (or otherwise specified times), then pelleted by centrifugation (524 g, 5 min, 4° C.), washed with cold PBS (10 mL) and transferred to Eppendorf tubes (1 mL PBS). The cells were pelleted again (524 g, 5 min, 4° C.), flash-frozen, and kept at −80° C. until further analysis.
Activated or expanded primary human T cells were re-suspended in RPMI (1×10^6 cells/mL) containing 10% fetal bovine serum (FBS), penicillin (100 U/mL), streptomycin ([…]), and L-glutamine (2 mM). […] The resulting proteomes were analyzed by competitive isotopic Tandem Orthogonal Proteolysis Activity-Based Protein Profiling (isoTOP-ABPP). […]
The heavy/light isoTOP-ABPP ratios (R values) for each unique peptide (DMSO/compound treated) were quantified with in-house CIMAGE software (Weerapana et al., 2010) using default parameters (3 MS1 acquisitions per peak and signal to noise threshold set to 2.5). Site-specific engagement of cysteine residues was assessed by blockade of IA-alkyne probe labeling. […]

T1 sequence (Q86WV6 whole entry H232R): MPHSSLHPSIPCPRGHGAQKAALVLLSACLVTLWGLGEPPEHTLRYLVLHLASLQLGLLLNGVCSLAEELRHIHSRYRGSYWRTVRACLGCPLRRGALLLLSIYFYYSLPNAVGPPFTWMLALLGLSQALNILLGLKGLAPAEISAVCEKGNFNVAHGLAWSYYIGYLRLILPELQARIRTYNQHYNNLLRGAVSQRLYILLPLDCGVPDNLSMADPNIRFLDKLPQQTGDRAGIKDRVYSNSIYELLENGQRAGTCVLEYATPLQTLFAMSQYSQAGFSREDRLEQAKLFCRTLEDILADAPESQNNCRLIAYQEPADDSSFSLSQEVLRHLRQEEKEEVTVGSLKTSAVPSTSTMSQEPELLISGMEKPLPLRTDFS

SMILES: C=CC(=O)N(Cc1cccc(Cl)c1Cl)c1ccc(Oc2ccccc2)c(C(F)(F)F)c1 [BPK-21]
- labeling of C91 of TMEM173: direct labeling of C91

SMILES: C=CC(=O)N(Cc1cccc(Cl)n1)c1ccc(C(=O)Nc2ccccc2)nc1 [BPK-25]
- labeling of C91 of TMEM173: direct labeling of C91

Source: patent US20240131032A1, “AN ACTIVITY-GUIDED MAP OF ELECTROPHILE-CYSTEINE INTERACTIONS IN PRIMARY HUMAN IMMUNE CELLS” (The Scripps Research Institute, priority 2019, published 2024)
